In brackets after ≈: the same amount, converted by molar mass.
What was measured:
Format in all cases: cell-based
S. aureus cErmA = assay: MIC (broth microdilution or agar dilution, CLSI); settings: Staphylococcus aureus; S. aureus cErmA; read-out: MIC
Procedure: (§1) Minimum inhibitory concentrations (MICs) were determined by broth microdilution method or agar dilution method following the Clinical and Laboratory Standards Institute guidelines. Standard bacterial strains were obtained from American Type Culture Collection (ATCC). Other bacterial strains were obtained from hospitals and commercial sources, so noted in Table 11. Before the start of the MIC experiment, standard and test compound stock solutions were prepared in dimethyl sulfoxide (DMSO, Aldrich D2650) at a stock concentration of 5,120 μg/mL. The compound concentration range typically employed for each experiment was 128-0.06 μg/mL (2.5% final DMSO concentration). Clindamycin was used as a comparator in all experiments and each experiment was performed in triplicate. Specialized procedures were employed for streptococcal and anaerobic strains. All other bacterial strains were sub-cultured on blood agar plates (tryptic soy agar with 5% sheep blood, Hardy Diagnostics) and incubated overnight at 35° C. Organisms were suspended in cation-adjusted Mueller-Hinton broth (CaMHB, BD 212322) and optical density was adjusted to 0.5 McFarland standard. Suspensions were further diluted to obtain a final inoculum of 5×10^5 CFU/mL for broth microdilution experiments.

E. faecium Clinical VRE = assay: MIC (broth microdilution or agar dilution, CLSI); settings: Enterococcus faecium; E. faecium Clinical VRE; read-out: MIC
Procedure: as §1

S. aureus ATCC 29213 = assay: MIC (broth microdilution or agar dilution, CLSI); settings: Staphylococcus aureus, ATCC29213, S. aureus ATCC 29213; read-out: MIC
Procedure: (§2) Minimum inhibitory concentrations (MICs) were determined by broth microdilution method or agar dilution method following the Clinical and Laboratory Standards Institute guidelines. Standard bacterial strains were obtained from American Type Culture Collection (ATCC). Other bacterial strains were obtained from hospitals and commercial sources, so noted in Table 11. […] Specialized procedures were employed for streptococcal and anaerobic strains. All other bacterial strains were sub-cultured on blood agar plates (tryptic soy agar with 5% sheep blood, Hardy Diagnostics) and incubated overnight at 35° C. […] Suspensions were further diluted to obtain a final inoculum of 5×10^5 CFU/mL for broth microdilution experiments.

E. coli LptD = assay: MIC (broth microdilution or agar dilution, CLSI); settings: Escherichia coli, E. coli LptD; read-out: MIC
Procedure: as §2

K. oxytoca Clinical = assay: MIC (broth microdilution or agar dilution, CLSI); settings: Klebsiella oxytoca; K. oxytoca Clinical; read-out: MIC
Procedure: as §2

E. coli ATCC 25922 = assay: MIC (broth microdilution or agar dilution, CLSI); settings: Escherichia coli, ATCC25922; E. coli ATCC 25922; read-out: MIC
Procedure: as §2

E. faecalis ATCC 29212 = assay: MIC (broth microdilution or agar dilution, CLSI); settings: Enterococcus faecalis, ATCC29212, E. faecalis ATCC 29212; read-out: MIC
Procedure: as §2

S. pneumoniae ATCC 49619 = assay: MIC (broth microdilution or agar dilution, CLSI); settings: Streptococcus pneumoniae, ATCC49619, S. pneumoniae ATCC 49619; read-out: MIC
Procedure: as §2

S. pyogenes ATCC 19615 = assay: MIC (broth microdilution or agar dilution, CLSI); settings: Streptococcus pyogenes, ATCC19615, S. pyogenes ATCC 19615; read-out: MIC
Procedure: as §2

E. coli ΔTolC = assay: microbe, parasite or virus in culture; settings: Escherichia coli, E. coli ΔTolC
Procedure: as §2

[1] = system: broad panel of different clinical isolates; assay: microbe, parasite or virus in culture; settings: Staphylococcus aureus, norA
Procedure: as §2

Structure (SMILES) | MIC (S. aureus cErmA) | MIC (E. faecium Clinical VRE) | MIC (S. aureus ATCC 29213) | MIC (E. coli LptD) | MIC (K. oxytoca Clinical) | MIC (E. coli ATCC 25922) | MIC (E. faecalis ATCC 29212) | MIC (S. pneumoniae ATCC 49619) | MIC (S. pyogenes ATCC 19615) | MIC (E. coli ΔTolC) | MIC ([1]; S. aureus HAV#051, mecA, spcl, ermA, aad1, aac6′-aph2″) | MIC ([1]; S. aureus HAV#052, mecA, fosB, blaZ) | MIC ([1]; S. aureus HAV#053 mecA, fosB) | MIC ([1]; S. aureus HAV#054, mecA, spcl, aad1, fosB, ermA, aac6′-aph2″, blaZ)
CS[C@H]1O[C@H]([C@H](NC(=O)[C@H]2NC[C@@H]3C[C@H](CC(C)C)CCO[C@H]32)C(C)C(F)(F)F)[C@H](O)[C@H](O)[C@H]1O (mixture of isomers) [FSA-09-04-081, (4S,5aS,8S,8aR)-4-Isobutyl-N-((1R)-3,3,3-trifluoro-2-methyl-1-((2R,3R,4S,5R,6R)-3,4,5-trihydroxy-6-(methylthio)tetrahydro-2H-pyran-2-yl)propyl)octahydro-2H-oxepino[2,3-c]pyrrole-8-carboxamide] | 8 µg/mL (≈ 15.1 µM) | 0.25 µg/mL (≈ 0.473 µM) | 0.125 µg/mL (≈ 0.236 µM) | 2 µg/mL (≈ 3.78 µM) | 32 µg/mL (≈ 60.5 µM) | 32 µg/mL (≈ 60.5 µM) | 0.125 µg/mL (≈ 0.236 µM) | 0.125 µg/mL (≈ 0.236 µM) | 0.125 µg/mL (≈ 0.236 µM) | 2 µg/mL (≈ 3.78 µM) |  |  |  | 
NCC[C@H](O)C(=O)N[C@@H]1C[C@H](N)[C@@H](O[C@H]2O[C@H](CN)[C@@H](O)[C@H](O)[C@H]2O)[C@H](O)[C@H]1O[C@H]1O[C@H](CO)[C@@H](O)[C@H](N)[C@H]1O [Amikacin] |  |  |  |  |  |  |  |  |  |  | 4 µg/mL (≈ 6.83 µM) | 4 µg/mL (≈ 6.83 µM) | 4 µg/mL (≈ 6.83 µM) | 64 µg/mL (≈ 109 µM)
CS[C@H]1O[C@H]([C@H](NC(=O)[C@H]2NC[C@@H]3C[C@H](CC(C)C)CCO[C@H]32)[C@@H](C)O)[C@H](O)[C@H](O)[C@H]1O [FSA-09-04-072, (4S,5aS,8S,8aR)-N-((1R,2R)-2-Hydroxy-1-((2R,3R,4S,5R,6R)-3,4,5-trihydroxy-6-(methylthio)tetrahydro-2H-pyran-2-yl)propyl)-4-isobutyloctahydro-2H-oxepino[2,3-c]pyrrole-8-carboxamide] | 32 µg/mL (≈ 67.1 µM) | 0.5 µg/mL (≈ 1.05 µM) | 1 µg/mL (≈ 2.1 µM) | 2 µg/mL (≈ 4.2 µM) | 16 µg/mL (≈ 33.6 µM) | 16 µg/mL (≈ 33.6 µM) | 0.25 µg/mL (≈ 0.525 µM) | 0.5 µg/mL (≈ 1.05 µM) | 0.5 µg/mL (≈ 1.05 µM) | 1 µg/mL (≈ 2.1 µM) |  |  |  | 
CS[C@H]1O[C@H]([C@H](NC(=O)[C@H]2NC[C@@H]3C[C@H](CC(C)C)CCO[C@H]32)[C@H](C)Sc2ccc(CCN(C)C)cc2)[C@H](O)[C@H](O)[C@H]1O [FSA-09-04-087, (4S,5aS,8S,8aR)-N-((1S,2S)-2-((4-(2-(Dimethylamino)ethyl)phenyl)thio)-1-((2R,3R,4S,5R,6R)-3,4,5-trihydroxy-6-(methylthio)tetrahydro-2H-pyran-2-yl)propyl)-4-isobutyloctahydro-2H-oxepino[2,3-c]pyrrole-8-carboxamide] | 8 µg/mL (≈ 12.5 µM) | 4 µg/mL (≈ 6.25 µM) | 1 µg/mL (≈ 1.56 µM) | 1 µg/mL (≈ 1.56 µM) | 16 µg/mL (≈ 25 µM) | 16 µg/mL (≈ 25 µM) | 0.5 µg/mL (≈ 0.781 µM) | 0.5 µg/mL (≈ 0.781 µM) | 0.5 µg/mL (≈ 0.781 µM) | 1 µg/mL (≈ 1.56 µM) |  |  |  | 
CS[C@H]1O[C@H]([C@H](NC(=O)[C@H]2NC[C@@H]3C[C@H](CC(C)C)CCO[C@H]32)[C@H](C)Sc2nnc(N)s2)[C@H](O)[C@H](O)[C@H]1O [FSA-09-04-094, (4S,5aS,8S,8aR)-N-((1S,2S)-2-((5-Amino-1,3,4-thiadiazol-2-yl)thio)-1-((2R,3R,4S,5R,6R)-3,4,5-trihydroxy-6-(methylthio)tetrahydro-2H-pyran-2-yl)propyl)-4-isobutyloctahydro-2H-oxepino[2,3-c]pyrrole-8-carboxamide] | 128 µg/mL (≈ 216 µM) | 128 µg/mL (≈ 216 µM) | 4 µg/mL (≈ 6.76 µM) | 64 µg/mL (≈ 108 µM) | > 128 µg/mL | > 128 µg/mL | 2 µg/mL (≈ 3.38 µM) | 0.5 µg/mL (≈ 0.845 µM) | 1 µg/mL (≈ 1.69 µM) | 32 µg/mL (≈ 54.1 µM) |  |  |  | 
CS[C@H]1O[C@H]([C@H](NC(=O)[C@H]2NC[C@@H]3C[C@H](CC(C)C)CCO[C@H]32)[C@H](C)Sc2nnc(N3CCNCC3)s2)[C@H](O)[C@H](O)[C@H]1O [FSA-09-05-011, (4S,5aS,8S,8aR)-4-Isobutyl-N-((1S,2S)-2-((5-(piperazin-1-yl)-1,3,4-thiadiazol-2-yl)thio)-1-((2R,3R,4S,5R,6R)-3,4,5-trihydroxy-6-(methylthio)tetrahydro-2H-pyran-2-yl)propyl)octahydro-2H-oxepino[2,3-c]pyrrole-8-carboxamide] | 64 µg/mL (≈ 96.8 µM) | 32 µg/mL (≈ 48.4 µM) | 4 µg/mL (≈ 6.05 µM) | 8 µg/mL (≈ 12.1 µM) | 64 µg/mL (≈ 96.8 µM) | 32 µg/mL (≈ 48.4 µM) | 2 µg/mL (≈ 3.03 µM) | 1 µg/mL (≈ 1.51 µM) | 1 µg/mL (≈ 1.51 µM) | 2 µg/mL (≈ 3.03 µM) |  |  |  | 
CS[C@H]1O[C@H]([C@H](NC(=O)[C@H]2NC[C@@H]3C[C@H](CC(C)C)CCO[C@H]32)[C@H](C)Sc2ccc(CN3CCOCC3)cc2)[C@H](O)[C@H](O)[C@H]1O [FSA-09-05-68, (4S,5aS,8S,8aR)-4-Isobutyl-N-((1S,2S)-2-((4-(morpholinomethyl)phenyl)thio)-1-((2R,3R,4S,5R,6R)-3,4,5-trihydroxy-6-(methylthio)tetrahydro-2H-pyran-2-yl)propyl)octahydro-2H-oxepino[2,3-c]pyrrole-8-carboxamide] | 8 µg/mL (≈ 12 µM) | 4 µg/mL (≈ 5.99 µM) | 2 µg/mL (≈ 2.99 µM) | 2 µg/mL (≈ 2.99 µM) | 32 µg/mL (≈ 47.9 µM) | 32 µg/mL (≈ 47.9 µM) | 1 µg/mL (≈ 1.5 µM) | 0.125 µg/mL (≈ 0.187 µM) | 0.25 µg/mL (≈ 0.374 µM) | 2 µg/mL (≈ 2.99 µM) |  |  |  | 
CS[C@H]1O[C@H]([C@H](NC(=O)[C@H]2NC[C@@H]3C[C@H](CC(C)C)CCO[C@H]32)[C@H](C)Sc2ccc(CO)cc2)[C@H](O)[C@H](O)[C@H]1O [FSA-09-05-069, (4S,5aS,8S,8aR)-N-((1S,2S)-2-((4-(Hydroxymethyl)phenyl)thio)-1-((2R,3R,4S,5R,6R)-3,4,5-trihydroxy-6-(methylthio)tetrahydro-2H-pyran-2-yl)propyl)-4-isobutyloctahydro-2H-oxepino[2,3-c]pyrrole-8-carboxamide] | 64 µg/mL (≈ 107 µM) | 16 µg/mL (≈ 26.7 µM) | 1 µg/mL (≈ 1.67 µM) | 16 µg/mL (≈ 26.7 µM) | 128 µg/mL (≈ 214 µM) | 128 µg/mL (≈ 214 µM) | 1 µg/mL (≈ 1.67 µM) | 0.125 µg/mL (≈ 0.209 µM) | 0.25 µg/mL (≈ 0.417 µM) | 4 µg/mL (≈ 6.68 µM) |  |  |  | 
CS[C@H]1O[C@H]([C@H](NC(=O)[C@H]2NC[C@@H]3C[C@H](CC(C)C)CCO[C@H]32)[C@H](C)Sc2ccc(-c3cccnc3)cc2)[C@H](O)[C@H](O)[C@H]1O [FSA-09-05-074, (4S,5aS,8S,8aR)-4-Isobutyl-N-((1S,2S)-2-((4-(pyridin-3-yl)phenyl)thio)-1-((2R,3R,4S,5R,6R)-3,4,5-trihydroxy-6-(methylthio)tetrahydro-2H-pyran-2-yl)propyl)octahydro-2H-oxepino[2,3-c]pyrrole-8-carboxamide] | 2 µg/mL (≈ 3.1 µM) | 2 µg/mL (≈ 3.1 µM) | 1 µg/mL (≈ 1.55 µM) | 4 µg/mL (≈ 6.19 µM) | 32 µg/mL (≈ 49.5 µM) | 32 µg/mL (≈ 49.5 µM) | 0.5 µg/mL (≈ 0.774 µM) | 0.125 µg/mL (≈ 0.194 µM) | 0.25 µg/mL (≈ 0.387 µM) | 4 µg/mL (≈ 6.19 µM) |  |  |  | 

Reference: US20230203081A1, “LINCOSAMIDE ANTIBIOTICS AND USES THEREOF” (President and Fellows of Harvard College, priority 2020, published 2023)
